In patent US20160368943A1, “SUBSTITUTED PURINE COMPOUNDS” (EPIZYME, INC., priority 2013, published 2016):

Legend:
[1] = Pharmacokinetic study in mouse; assay type: in vivo, CD-1 mouse
Experimental: Oral and IV doses were administered by oral gavage, or by tail vein injection in a 10% ethanol and 90% saline vehicle, respectively. For PO dosing, samples were taken at 0.167, 0.5, 1, 2, 4, 6 and 24 h p.d. For IV administration, samples were taken at 0.05, 0.167, 0.5, 1, 2, 4, 6 and 24 h p.d. Blood samples were centrifuged at 4° C. (2000 g, 5 minutes) to obtain plasma within 15 minutes after sample collection. The levels of Compound A were quantitated in mouse plasma by LC-MS/MS analysis. […] Typically, samples were injected onto an LC-MS/MS system using a Waters BEH Phenyl column. The aqueous mobile phase was water with 0.1% NH4OH (A), and the organic mobile phase was acetonitrile with 0.1% NH4OH (B). The gradient was as follows: 37% B for the first 0.2 min, increased to 44% B from 0.2 to 0.6 min, maintained at 44% B for 0.5 min, and decreased to 37% B within 0.05 min. The injection volume was 2 uL, and the total run time was 1.5 min with a flow rate of 0.6 mL/min. […] The ionization was conducted in the positive ion mode using the MRM transition [M+H]+m/z 563.5 parent ion to m/z 326.3 daughter ion, incorporating a turbo-ionspray interface. Eight to ten calibration standards were prepared in blank plasma of the relevant species providing a typical standard curve concentration range of 5-500 ng/mL. Pharmacokinetic parameters were calculated by noncompartmental methods using WinNonlin (version 5.3; Pharsight, St. Louis, Mo.). Parameters are presented as mean±S.D.

[2] = tested on: MLL-rearranged leukemia xenograft; conditions: cited from earlier work
[3] = Liver microsome stability, human; assay type: in vitro ADME
Experimental: The final incubation volume was 50 μL. Control incubations were included for each species where 0.1 M phosphate buffer pH 7.4 was added instead of NADPH (minus NADPH). Two control compounds were included for each species. […] The control (minus NADPH) was incubated for 45 minutes only. The reactions were stopped by transferring 25 μL of incubate to 50 μL methanol at the appropriate time points. The incubation plates were centrifuged at 2,500 rpm for 20 minutes at 4° C. to aid protein precipitation. Experimental half-lives were transformed to the corresponding intrinsic clearance values and subsequently scaled to predicted in vivo clearance values, using the well-stirred model as previously described (Houston, Biochemical Pharmacology 47(9): 1469-1479, 1994; Obach, Drug Metabolism and Disposition 27(11): 1350-1359, 1999), with appropriate species-specific scaling factors (Barter et al., Current Drug Metabolism 8(1): 33-45, 2007).

[4] = Pharmacokinetic study in dog; assay type: in vivo, Beagle dog; conditions: 1 mg/kg
Experimental: IV doses were administered by a single intravenous infusion over 1 minute into the cephalic vein in a 10% ethanol and 90% saline vehicle. At designated time points (predose, 0.083, 0.25, 0.5, 1, 2, 4, 8 and 24 h p.d.), the animals were restrained manually, and approximately 0.5 mL blood per time point was collected from non-injected cephalic vein into pre-cold EDTA-K2 tubes. Blood samples were put on wet ice and centrifuged at 4° C. to obtain plasma within 15 minutes of sample collection. The levels of Compound A were quantitated in dog plasma by LC-MS/MS analysis. […] Typically, samples were injected onto an LC-MS/MS system using a Waters BEH Phenyl column. The aqueous mobile phase was water with 0.1% NH4OH (A), and the organic mobile phase was acetonitrile with 0.1% NH4OH (B). The gradient was as follows: 37% B for the first 0.2 min, increased to 44% B from 0.2 to 0.6 min, maintained at 44% B for 0.5 min, and decreased to 37% B within 0.05 min. The injection volume was 2 uL, and the total run time was 1.5 min with a flow rate of 0.6 mL/min. […] The ionization was conducted in the positive ion mode using the MRM transition [M+H]+m/z 563.5 parent ion to m/z 326.3 daughter ion, incorporating a turbo-ionspray interface. Eight to ten calibration standards were prepared in blank plasma of the relevant species providing a typical standard curve concentration range of 5-500 ng/mL. Pharmacokinetic parameters were calculated by noncompartmental methods using WinNonlin (version 5.3; Pharsight, St. Louis, Mo.). Parameters are presented as mean±S.D.

[5] = Plasma protein binding by equilibrium dialysis, dog; assay type: in vitro ADME; conditions: male, beagle, pH 7.4, read-out: Plasma free fraction
Experimental: Plasma protein binding was assessed by equilibrium dialysis, utilizing the HT-dialysis cell format with a cellulose semi permeable membrane (molecular weight cut off of 5000 Da). Plasma was warmed to 37° C. and adjusted to pH 7.4 before use. Male Sprague-Dawley rat, male Beagle dog, male CD-1 mouse and mixed sex human plasma was used for the studies. A 5 μM test compound solution was prepared in isotonic phosphate buffer and rat, dog, mouse and human plasma (final DMSO concentration of 0.5%). The plasma-containing solution was introduced to one side of the membrane, and the plasma-free on the other. Incubations were performed for 2-16 hours in duplicate in order to allow the compound to reach equilibrium. Haloperidol was included as the control compound for each species. At the end of the equilibration time the cells were emptied. Following protein precipitation, the samples were centrifuged and analyzed by LC-MS/MS. The samples from the protein containing compartment were quantified using calibration standards prepared in plasma and the protein free compartments were quantified using calibration standards prepared in dialysis buffer.

[6] = male, CD-1, mouse, plasma, iv, 5 mg/kg, IV bolus
[7] = male, plasma, CD-1 mouse, IV bolus, 5 mg/kg
[8] = male, plasma, CD-1 mouse, PO, 20 mg/kg
[9] = male, plasma, Beagle dog, IV bolus

CC(C)N(C[C@H]1O[C@@H](n2cnc3c(N)ncnc32)[C@H](O)[C@@H]1O)[C@H]1C[C@@H](CCc2nc3cc(C(C)(C)C)ccc3[nH]2)C1 [Compound A, (2R,3R,4S,5R)-2-(6-amino-9H-purin-9-yl)-5-((((1r,3S)-3-(2-(5-(tert-butyl)-1H-benzo[d]imidazol-2-yl)ethyl)cyclobutyl)(isopropyl)amino)methyl)tetrahydrofuran-3,4-diol]
CL ([1]; CD-1 mouse, IV bolus, 5 mg/kg): 76.7 ± 11.5 mL/min/kg | t1/2 ([1]; CD-1 mouse, IV bolus, 5 mg/kg): 68.4 ± 21 min | F ([1]; CD-1 mouse, PO, 20 mg/kg): <1% | Vd ([1]; male, CD-1, mouse, plasma, iv, 5 mg/kg, CD-1 mouse, IV bolus, 5 mg/kg, read-out: VDss): 1.58 L/kg | clearance [1, 6]: 77 mL/min/kg | half-life [1, 6]: 66 min | Vd ([1]; male, CD-1, mouse, plasma, iv, 5 mg/kg, mouse, read-out: Unbound VDss): 11.4 L/kg | AUC(0-inf) [1, 7]: 1.96 ± 0.3 µM·h | AUC(0-t) [1, 7]: 1.95 ± 0.28 µM·h | Cmax [1, 7]: 7.99 ± 1.9 µM | MRT [1, 7]: 21 ± 3.6 min | Tmax [1, 7]: 3 min | AUC(0-t) [1, 8]: 0.0014 µM·h | Cmax [1, 8]: 0.0019 µM | Tmax [1, 8]: 30 min | oral bioavailability (in words) ([1]; mouse, PO): low and negligible | tumor response ([2]; continuous intravenous (IV) infusion, rat xenograft): complete tumor regressions | weight loss or signs of toxicity ([2]; rat, in vivo, iv): no significant weight loss or signs of toxicity | microsomal CLint at 3 μM ([3]; liver microsomes, pH 7.4, NADPH, 3 μM): 88 µL/min/mg | Scaled Hepatic CL from liver microsomes ([3]; well-stirred model): 17 mL/min/kg | CL ([4]; Beagle dog, IV bolus): 18.7 ± 1.7 mL/min/kg | clearance ([4]; male, beagle, dog, plasma, iv, Beagle dog, IV bolus): 19 mL/min/kg | Vd ([4]; male, beagle, dog, plasma, iv, Beagle dog, IV bolus, read-out: VDss): 2.44 L/kg | Vd ([4]; male, beagle, dog, plasma, iv, dog, read-out: Unbound VDss): 10.4 L/kg | AUC(0-inf) [4, 9]: 1.6 ± 0.15 µM·h | AUC(0-t) [4, 9]: 1.55 ± 0.16 µM·h | Cmax [4, 9]: 5.06 ± 0.6 µM | MRT [4, 9]: 130 ± 53.4 min | Tmax [4, 9]: 4.98 min | half-life [4, 9]: 816 min | fraction unbound at 5 μM [5]: 0.234
